The test system of one experiment is Uromyces viciae-fabael. In words: Fungicidal activity against Uromyces viciae-fabae / field bean / leaf disc preventative (faba-bean rust). Format: in vivo. Particulars: foliar, 288 h, 100 ppm in the applied formulation, field bean leaf discs, preventative (inoculated two hours after application), assessed 12 days after application, compared to untreated, read-out: disease control. As to the method:
Leaf disks or leaf segments of various plant species are cut from plants grown in a greenhouse. The cut leaf disks or segments are placed in multiwell plates (24-well format) onto water agar. The leaf disks are sprayed with a test solution before (preventative) or after (curative) inoculation. Compounds to be tested are prepared as DMSO solutions (max. 10 mg/ml) which are diluted to the appropriate concentration with 0.025% Tween20 just before spraying. The inoculated leaf disks or segments are incubated under defined conditions (temperature, relative humidity, light, etc.) according to the respective test system. A single evaluation of disease level is carried out 3 to 14 days after inoculation, depending on the pathosystem. Percent disease control relative to the untreated check leaf disks or segments is then calculated. Example 5: Fungicidal Activity Against Uromyces viciae-fabael Field Bean/Leaf Disc Preventative (Faba-Bean Rust) Field bean leaf discs are placed on water agar in multiwell plates (96-well format) and 10 μl of the formulated test compound diluted in acetone and a spreader pipetted onto the leaf disc. Two hours after application leaf discs are inoculated by spraying a spore suspension on the lower leaf surface. The leaf discs are incubated in a climate cabinet at 22° C. with 18 hour day and 70% relative humidity. The activity of a compound is assessed as percent disease control compared to untreated when an appropriate level of disease damage appears in untreated check leaf disks (12 days after application). The following compounds at 100 ppm in the applied formulation give at least 80% disease control in this test when compared to untreated control leaf discs under the same conditions, which show extensive disease development.

The test system of experiment [1] is Glomerella lagenarium (Colletotrichum lagenarium). In words: Fungicidal activity against Glomerella lagenarium (Colletotrichum lagenarium) liquid culture / cucumber / preventative (anthracnose). Format: cell-based. The following applies: Colletotrichum orbiculare; 20 ppm in the applied formulation; liquid culture in PDB, 24° C.; inhibition of growth measured photometrically 3 to 4 days after application; compared to untreated; read-out: disease control. As to the method: Mycelia fragments or conidia suspensions of a fungus prepared either freshly from liquid cultures of the fungus or from cryogenic storage, are directly mixed into nutrient broth. DMSO solutions of the test compound (max. 10 mg/ml) are diluted with 0.025% Tween20 by a factor of 50 and 10 μl of this solution is pipetted into a microtiter plate (96-well format). The nutrient broth containing the fungal spores/mycelia fragments is then added to give an end concentration of the tested compound. The test plates are incubated in the dark at 24° C. and 96% relative humidity. The inhibition of fungal growth is determined photometrically after 2 to 7 days, depending on the pathosystem, and percent antifungal activity relative to the untreated check is calculated. Example 4: Fungicidal Activity Against Glomerella lagenarium (Colletotrichum lagenarium) Liquid Culture/Cucumber/Preventative (Anthracnose) Conidia of the fungus from cryogenic storage are directly mixed into nutrient broth (PDB—potato dextrose broth). After placing a (DMSO) solution of test compound into a microtiter plate (96-well format), the nutrient broth containing the fungal spores is added. The test plates are incubated at 24° C. and the inhibition of growth is measured photometrically 3 to 4 days after application. The following compounds at 20 ppm in the applied formulation give at least 80% disease control in this test when compared to untreated control under the same conditions, which show extensive disease development.

Experiment [2] deals with Puccinia recondita f. Sp. Tritici. In words: Fungicidal activity against Puccinia recondita f. sp. tritici / wheat / leaf disc preventative (brown rust). Format: in vivo. The following applies: foliar, 200 ppm in the applied formulation, wheat leaf segments cv. Kanzler, preventative (inoculated 1 day after application), assessed 7 to 9 days after application, compared to untreated, read-out: disease control. As to the method:
Leaf disks or leaf segments of various plant species are cut from plants grown in a greenhouse. The cut leaf disks or segments are placed in multiwell plates (24-well format) onto water agar. The leaf disks are sprayed with a test solution before (preventative) or after (curative) inoculation. Compounds to be tested are prepared as DMSO solutions (max. 10 mg/ml) which are diluted to the appropriate concentration with 0.025% Tween20 just before spraying. The inoculated leaf disks or segments are incubated under defined conditions (temperature, relative humidity, light, etc.) according to the respective test system. A single evaluation of disease level is carried out 3 to 14 days after inoculation, depending on the pathosystem. Percent disease control relative to the untreated check leaf disks or segments is then calculated. Example 1: Fungicidal Activity Against Puccinia recondita f. Sp. Tritici/Wheat/Leaf Disc Preventative (Brown Rust) Wheat leaf segments cv. Kanzler were placed on agar in multiwell plates (24-well format) and sprayed with the formulated test compound diluted in water. The leaf disks were inoculated with a spore suspension of the fungus 1 day after application. The inoculated leaf segments were incubated at 19° C. and 75% relative humidity (rh) under a light regime of 12 hours light/12 hours darkness in a climate cabinet and the activity of a compound was assessed as percent disease control compared to untreated when an appropriate level of disease damage appears in untreated check leaf segments (7 to 9 days after application). The following compounds at 200 ppm in the applied formulation give at least 80% disease control in this test when compared to untreated control leaf disks under the same conditions, which show extensive disease development.

The test system of another experiment is Phakopsora pachyrhizi. Kind of experiment: Fungicidal activity against Phakopsora pachyrhizi / soybean / leaf disc preventative (Asian soybean rust). Format: in vivo. The following applies: foliar, 200 ppm in the applied formulation, soybean leaf disks, preventative (inoculated one day after application), assessed 12 to 14 days after application, compared to untreated, read-out: disease control. As for the experimental part: Leaf disks or leaf segments of various plant species are cut from plants grown in a greenhouse. The cut leaf disks or segments are placed in multiwell plates (24-well format) onto water agar. The leaf disks are sprayed with a test solution before (preventative) or after (curative) inoculation. Compounds to be tested are prepared as DMSO solutions (max. 10 mg/ml) which are diluted to the appropriate concentration with 0.025% Tween20 just before spraying. The inoculated leaf disks or segments are incubated under defined conditions (temperature, relative humidity, light, etc.) according to the respective test system. A single evaluation of disease level is carried out 3 to 14 days after inoculation, depending on the pathosystem. Percent disease control relative to the untreated check leaf disks or segments is then calculated. Example 3: Fungicidal Activity Against Phakopsora pachyrhizi/Soybean/Leaf Disc Preventative (Asian Soybean Rust) Soybean leaf disks are placed on water agar in multiwell plates (24-well format) and sprayed with the formulated test compound diluted in water. One day after application leaf discs are inoculated by spraying a spore suspension on the lower leaf surface. After an incubation period in a climate cabinet of 24-36 hours in darkness at 20° C. and 75% rh leaf disc are kept at 20° C. with 12 h light/day and 75% rh. The activity of a compound is assessed as percent disease control compared to untreated when an appropriate level of disease damage appears in untreated check leaf disks (12 to 14 days after application). The following compounds at 200 ppm in the applied formulation give at least 80% disease control in this test when compared to untreated control leaf disks under the same conditions, which show extensive disease development.

Structures are written as SMILES.

This passage reports pest or weed control and inhibition of growth results from patent US10757941B2, “Microbiocidal oxadiazole derivatives” (SYNGENTA PARTICIPATIONS AG, priority 2016, dated 2020).

`O=C(NC1CCSCC1)c1ccc(-c2noc(C(F)(F)F)n2)c(F)c1` [Compound 1.7, 3-fluoro-N-tetrahydro-thiopyran-4-yl-4-[5-(trifluoromethyl)-1,2,4-oxadiazol-3-yl]benzamide]: the pest or weed control at 100 ppm with Uromyces viciae-fabael is ≥ 80%.

On to `CCOc1ccc(CN(C(=O)c2ccc(-c3noc(C(F)(F)F)n3)c(F)c2)C(C)C)cc1OCC` [Compound 1.17, N-[(3,4-diethoxyphenyl)methyl]-3-fluoro-N-isopropyl-4-[5-(trifluoromethyl)-1,2,4-oxadiazol-3-yl]benzamide], for which the inhibition of growth at 20 ppm in experiment [1] is ≥ 80%. Moreover, the pest or weed control at 200 ppm in experiment [2] is ≥ 80%. The pest or weed control at 100 ppm with Uromyces viciae-fabael was ≥ 80%.

With `CN1CCC2(CC1)CC(NC(=O)c1ccc(-c3noc(C(F)(F)F)n3)c(F)c1)C2` [Compound 1.11, 3-fluoro-N-(7-methyl-7-azaspiro[3.5]nonan-2-yl)-4-[5-(trifluoromethyl)-1,2,4-oxadiazol-3-yl]benzamide], the pest or weed control at 200 ppm in the experiment on Phakopsora pachyrhizi was ≥ 80%. Further, the pest or weed control at 100 ppm in the experiment on Uromyces viciae-fabael was ≥ 80%.

On to `N#CCCN(CCC#N)C(=O)c1ccc(-c2noc(C(F)(F)F)n2)c(F)c1` [Compound 1.29, N,N-bis(2-cyanoethyl)-3-fluoro-4-[5-(trifluoromethyl)-1,2,4-oxadiazol-3-yl]benzamide], for which the pest or weed control at 100 ppm in the experiment on Uromyces viciae-fabael was ≥ 80%.

For `O=C(Nc1ccnc2ncnn12)c1ccc(-c2noc(C(F)(F)F)n2)c(F)c1` [Compound 1.9, 3-fluoro-N-([1,2,4]triazolo[1,5-a]pyrimidin-7-yl)-4-[5-(trifluoromethyl)-1,2,4-oxadiazol-3-yl]benzamide], the inhibition of growth at 20 ppm in experiment [1] was ≥ 80%. Also, the pest or weed control at 200 ppm in experiment [2] was ≥ 80%. Moreover, the pest or weed control at 100 ppm in the experiment with Uromyces viciae-fabael is ≥ 80%.

`CCC(C#N)(COc1ccc(C#N)cc1)NC(=O)c1ccc(-c2noc(C(F)(F)F)n2)c(F)c1` (centres unmarked) [Compound 1.24, N-[1-cyano-1-[(4-cyanophenoxy)methyl]propyl]-3-fluoro-4-[5-(trifluoromethyl)-1,2,4-oxadiazol-3-yl]benzamide]: the pest or weed control at 200 ppm in experiment [2] is ≥ 80%.

`CCOC(=O)C(CC(F)(F)F)NC(=O)c1ccc(-c2noc(C(F)(F)F)n2)c(F)c1` (centres unmarked) [Compound 1.26, ethyl 4,4,4-trifluoro-2-[[3-fluoro-4-[5-(trifluoromethyl)-1,2,4-oxadiazol-3-yl]benzoyl]amino] butanoate]: the pest or weed control at 200 ppm in experiment [2] was ≥ 80%. Besides, the pest or weed control at 100 ppm with Uromyces viciae-fabael was ≥ 80%.

For `CC(C)(C)CC(C)(C)NC(=O)c1ccc(-c2noc(C(F)(F)F)n2)c(F)c1` [Compound 1.37, 3-fluoro-N-(1,1,3,3-tetramethylbutyl)-4-[5-(trifluoromethyl)-1,2,4-oxadiazol-3-yl]benzamide], the inhibition of growth at 20 ppm in experiment [1] is ≥ 80%. Also, in the experiment on Uromyces viciae-fabael, the pest or weed control at 100 ppm was ≥ 80%.

Turning to `O=C(Nc1ccccc1)c1ccc(-c2noc(C(F)(F)F)n2)c(F)c1` [Compound 1.33, 3-fluoro-N-phenyl-4-[5-(trifluoromethyl)-1,2,4-oxadiazol-3-yl]benzamide], in the experiment on Uromyces viciae-fabael, the pest or weed control at 100 ppm was ≥ 80%.

For `CC(C)C(C)(C#N)NC(=O)c1ccc(-c2noc(C(F)(F)F)n2)c(F)c1` (centres unmarked) [Compound 1.30, N-(1-cyano-1,2-dimethyl-propyl)-3-fluoro-4-[5-(trifluoromethyl)-1,2,4-oxadiazol-3-yl]benzamide], the inhibition of growth at 20 ppm in experiment [1] was ≥ 80%. For the same molecule, in experiment [2], the pest or weed control at 200 ppm is ≥ 80%.

Take `CCOc1ccc(CN(CC2OCCO2)C(=O)c2ccc(-c3noc(C(F)(F)F)n3)c(F)c2)cc1OCC` [Compound 1.19, N-[(3,4-diethoxyphenyl)methyl]-N-(1,3-dioxolan-2-ylmethyl)-3-fluoro-4-[5-(trifluoromethyl)-1,2,4-oxadiazol-3-yl]benzamide]: the inhibition of growth at 20 ppm in experiment [1] was ≥ 80%. Besides, the pest or weed control at 100 ppm with Uromyces viciae-fabael was ≥ 80%.

On to `O=C(c1ccc(-c2noc(C(F)(F)F)n2)c(F)c1)N(Cc1ccc2c(c1)OCO2)CC1OCCO1` [Compound 1.18, N-(1,3-benzodioxol-5-ylmethyl)-N-(1,3-dioxolan-2-ylmethyl)-3-fluoro-4-[5-(trifluoromethyl)-1,2,4-oxadiazol-3-yl]benzamide], for which, in experiment [1], the inhibition of growth at 20 ppm is ≥ 80%. For the same molecule, in experiment [2], the pest or weed control at 200 ppm was ≥ 80%. Further, the pest or weed control at 100 ppm with Uromyces viciae-fabael was ≥ 80%.

`CC1CCCC(C)N1CCNC(=O)c1ccc(-c2noc(C(F)(F)F)n2)c(F)c1` (centres unmarked) [Compound 1.21, N-[2-(2,6-dimethyl-1-piperidyl)ethyl]-3-fluoro-4-[5-(trifluoromethyl)-1,2,4-oxadiazol-3-yl]benzamide]: the pest or weed control at 100 ppm with Uromyces viciae-fabael is ≥ 80%.

For the molecule `O=C(NCCCCc1ccccc1)c1ccc(-c2noc(C(F)(F)F)n2)c(F)c1` [Compound 1.1, 3-fluoro-N-(4-phenylbutyl)-4-[5-(trifluoromethyl)-1,2,4-oxadiazol-3-yl]benzamide], the inhibition of growth at 20 ppm in experiment [1] was ≥ 80%. Moreover, in experiment [2], the pest or weed control at 200 ppm is ≥ 80%. Also, the pest or weed control at 100 ppm with Uromyces viciae-fabael is ≥ 80%.

For the molecule `O=C(NCCCn1ccnc1)c1ccc(-c2noc(C(F)(F)F)n2)c(F)c1` [Compound 1.32, 3-fluoro-N-(3-imidazol-1-ylpropyl)-4-[5-(trifluoromethyl)-1,2,4-oxadiazol-3-yl]benzamide], in the experiment on Uromyces viciae-fabael, the pest or weed control at 100 ppm is ≥ 80%.

Turning to `O=C(NC1CC1c1ccccc1)c1ccc(-c2noc(C(F)(F)F)n2)c(F)c1` (centres unmarked) [Compound 1.34, 3-fluoro-N-(2-phenylcyclopropyl)-4-[5-(trifluoromethyl)-1,2,4-oxadiazol-3-yl]benzamide], in the experiment on Uromyces viciae-fabael, the pest or weed control at 100 ppm is ≥ 80%.
